# Experimental data reported in US4542137A, “Alkylaminodesoxy-1.4;3.6-dianhydrohexitol nitrates substituted by purine bases and pharmaceutical compositions” (priority 1980, dated 1985).
# Tested on: mongrel dogs
# Assay: circulatory pharmacological effectiveness on narcotised dogs, intravenous
# Assay type: in vivo, dog
# Settings: dog i.v. ISDN/9c 1, 1d 0.5 mg/kg
smiles,measurement,setting,value
"Cn1c(=O)c2c(ncn2CCCN[C@H]2CO[C@H]3[C@@H]2OC[C@@H]3O[N+](=O)[O-])n(C)c1=O [Example 1d, 5-(3-Theophyllin-7-ylpropyl)-amino-5-desoxy-1.4;3.6-dianhydro-L-iditol 2-nitrate]",APdiast: diastolic aorta pressure,2 min,67.5 mm.Hg
same,APsyst: systolic aorta pressure,2 min,107.8 mm.Hg
same,BFFem: blood flow in the A. femoralis referred to 20 kg body weight,2 min,42.6 mL/min
same,HF: heart frequency,2 min,145.7
same,"HLL: heart capacity left, referred to 20 kg body weight",2 min,0.51 W
same,"HLR: heart capacity right, referred to 20 kg body weight",2 min,70.9 mW
same,"HZV: heart minute volume, referred to 20 kg body weight",2 min,2.94 L/min
same,LVEDP: end diastolic pressure in the left ventricle,2 min,3.85 mm.Hg
same,"SV: beat volume, referred to 20 kg body weight",2 min,21.9 mL
same,"WAP: pulmonalis resistance, referred to 20 kg body weight",2 min,0.35 U
same,"WFem: moralis resistance, referred to 20 kg body weight",2 min,0.28 KU
same,"WTP: total peripheral resistance, referred to 20 kg body weight",2 min,3.73 U
same,dp/dt: rate of pressure increase in the left ventricle,2 min,2915.6 mm.Hg/sec
same,APdiast: diastolic aorta pressure,5 min,77.8 mm.Hg
same,APsyst: systolic aorta pressure,5 min,119.4 mm.Hg
same,BFFem: blood flow in the A. femoralis referred to 20 kg body weight,5 min,40.8 mL/min
same,HF: heart frequency,5 min,131.2
same,"HLL: heart capacity left, referred to 20 kg body weight",5 min,0.47 W
same,"HLR: heart capacity right, referred to 20 kg body weight",5 min,58.2 mW
same,"HZV: heart minute volume, referred to 20 kg body weight",5 min,2.40 L/min
same,LVEDP: end diastolic pressure in the left ventricle,5 min,4.78 mm.Hg
same,"SV: beat volume, referred to 20 kg body weight",5 min,19.6 mL
same,"WAP: pulmonalis resistance, referred to 20 kg body weight",5 min,0.38 U
same,"WFem: moralis resistance, referred to 20 kg body weight",5 min,0.32 KU
same,"WTP: total peripheral resistance, referred to 20 kg body weight",5 min,5.16 U
same,dp/dt: rate of pressure increase in the left ventricle,5 min,2671.9 mm.Hg/sec
same,APdiast: diastolic aorta pressure,7 min,75.9 mm.Hg
same,APsyst: systolic aorta pressure,7 min,122.8 mm.Hg
same,BFFem: blood flow in the A. femoralis referred to 20 kg body weight,7 min,42.7 mL/min
same,HF: heart frequency,7 min,119.5
same,"HLL: heart capacity left, referred to 20 kg body weight",7 min,0.47 W
same,"HLR: heart capacity right, referred to 20 kg body weight",7 min,56.8 mW
same,"HZV: heart minute volume, referred to 20 kg body weight",7 min,2.40 L/min
same,LVEDP: end diastolic pressure in the left ventricle,7 min,5.16 mm.Hg
same,"SV: beat volume, referred to 20 kg body weight",7 min,21.3 mL
same,"WAP: pulmonalis resistance, referred to 20 kg body weight",7 min,0.37 U
same,"WFem: moralis resistance, referred to 20 kg body weight",7 min,0.30 KU
same,"WTP: total peripheral resistance, referred to 20 kg body weight",7 min,5.10 U
same,dp/dt: rate of pressure increase in the left ventricle,7 min,2662.5 mm.Hg/sec
same,APdiast: diastolic aorta pressure,10 min,74.6 mm.Hg
same,APsyst: systolic aorta pressure,10 min,124.7 mm.Hg
same,BFFem: blood flow in the A. femoralis referred to 20 kg body weight,10 min,46.2 mL/min
same,HF: heart frequency,10 min,110.2
same,"HLL: heart capacity left, referred to 20 kg body weight",10 min,0.47 W
same,"HLR: heart capacity right, referred to 20 kg body weight",10 min,57.1 mW
same,"HZV: heart minute volume, referred to 20 kg body weight",10 min,2.38 L/min
same,LVEDP: end diastolic pressure in the left ventricle,10 min,4.69 mm.Hg
same,"SV: beat volume, referred to 20 kg body weight",10 min,22.9 mL
same,"WAP: pulmonalis resistance, referred to 20 kg body weight",10 min,0.41 U
same,"WFem: moralis resistance, referred to 20 kg body weight",10 min,0.28 KU
same,"WTP: total peripheral resistance, referred to 20 kg body weight",10 min,5.10 U
same,dp/dt: rate of pressure increase in the left ventricle,10 min,2465.6 mm.Hg/sec
same,APdiast: diastolic aorta pressure,15 min,75.9 mm.Hg
same,APsyst: systolic aorta pressure,15 min,126.0 mm.Hg
same,BFFem: blood flow in the A. femoralis referred to 20 kg body weight,15 min,48.3 mL/min
same,HF: heart frequency,15 min,107.7
same,"HLL: heart capacity left, referred to 20 kg body weight",15 min,0.44 W
same,"HLR: heart capacity right, referred to 20 kg body weight",15 min,53.8 mW
same,"HZV: heart minute volume, referred to 20 kg body weight",15 min,2.26 L/min
same,"SV: beat volume, referred to 20 kg body weight",15 min,22.0 mL
same,"WAP: pulmonalis resistance, referred to 20 kg body weight",15 min,0.43 U
same,"WFem: moralis resistance, referred to 20 kg body weight",15 min,0.28 KU
same,"WTP: total peripheral resistance, referred to 20 kg body weight",15 min,5.51 U
same,dp/dt: rate of pressure increase in the left ventricle,15 min,2465.6 mm.Hg/sec
same,APdiast: diastolic aorta pressure,20 min,78.7 mm.Hg
same,APsyst: systolic aorta pressure,20 min,127.9 mm.Hg
same,BFFem: blood flow in the A. femoralis referred to 20 kg body weight,20 min,51.5 mL/min
same,HF: heart frequency,20 min,104.0
same,"HLL: heart capacity left, referred to 20 kg body weight",20 min,0.45 W
same,"HLR: heart capacity right, referred to 20 kg body weight",20 min,52.8 mW
same,"HZV: heart minute volume, referred to 20 kg body weight",20 min,2.24 L/min
same,LVEDP: end diastolic pressure in the left ventricle,20 min,5.62 mm.Hg
same,"SV: beat volume, referred to 20 kg body weight",20 min,22.3 mL
same,"WAP: pulmonalis resistance, referred to 20 kg body weight",20 min,0.41 U
same,"WFem: moralis resistance, referred to 20 kg body weight",20 min,0.27 KU
same,"WTP: total peripheral resistance, referred to 20 kg body weight",20 min,5.71 U
same,dp/dt: rate of pressure increase in the left ventricle,20 min,2428.1 mm.Hg/sec
same,APdiast: diastolic aorta pressure,25 min,79.7 mm.Hg
same,APsyst: systolic aorta pressure,25 min,127.5 mm.Hg
same,BFFem: blood flow in the A. femoralis referred to 20 kg body weight,25 min,52.9 mL/min
same,"HLL: heart capacity left, referred to 20 kg body weight",25 min,0.45 W
same,"HLR: heart capacity right, referred to 20 kg body weight",25 min,50.9 mW
same,"HZV: heart minute volume, referred to 20 kg body weight",25 min,2.24 L/min
same,LVEDP: end diastolic pressure in the left ventricle,25 min,5.44 mm.Hg
same,"SV: beat volume, referred to 20 kg body weight",25 min,22.3 mL
same,"WAP: pulmonalis resistance, referred to 20 kg body weight",25 min,0.44 U
same,"WFem: moralis resistance, referred to 20 kg body weight",25 min,0.27 KU
same,"WTP: total peripheral resistance, referred to 20 kg body weight",25 min,5.78 U
same,dp/dt: rate of pressure increase in the left ventricle,25 min,2353.1 mm.Hg/sec
same,APdiast: diastolic aorta pressure,30 min,81.6 mm.Hg
same,APsyst: systolic aorta pressure,30 min,130.9 mm.Hg
same,BFFem: blood flow in the A. femoralis referred to 20 kg body weight,30 min,54.1 mL/min
same,HF: heart frequency,30 min,101.2
same,"HLL: heart capacity left, referred to 20 kg body weight",30 min,0.45 W
same,"HLR: heart capacity right, referred to 20 kg body weight",30 min,50.5 mW
same,"HZV: heart minute volume, referred to 20 kg body weight",30 min,2.18 L/min
same,LVEDP: end diastolic pressure in the left ventricle,30 min,5.72 mm.Hg
same,"SV: beat volume, referred to 20 kg body weight",30 min,22.1 mL
same,"WAP: pulmonalis resistance, referred to 20 kg body weight",30 min,0.45 U
same,"WFem: moralis resistance, referred to 20 kg body weight",30 min,0.26 KU
same,"WTP: total peripheral resistance, referred to 20 kg body weight",30 min,6.10 U
same,APdiast: diastolic aorta pressure,40 min,83.4 mm.Hg
same,APsyst: systolic aorta pressure,40 min,133.1 mm.Hg
